In patent US8637038B2, “Methods for inhibiting allograft rejection” (Rigel Pharmaceuticals, Inc., priority 2011, dated 2014):

What was measured:
Type in all cases: in vivo, rat
[1] = tested on: Lew recipients of heterotopic BN heart transplants; assay: Five-day heart allograft study: H+E histology, ISHLT rejection classification; conditions: HD (Compound I 60 mg/kg BID, Compound III 20 mg/kg BID, Tac 4 mg/kg QD); five days after transplantation
Description: Male Brown Norway (BN) and Lewis (Lew) rats weighing 350 g were purchased from Harlan (Indianapolis, Ind.) and were housed under conventional conditions. All animals were fed standard rat chow and water ad libitum and received humane care in compliance with the Principles of Laboratory Animal Care formulated by the National Society for Medical Research and the Guide for the care and Use of Laboratory Animals published by the National Institutes of Health (National Institutes of Health publication No. 85-23, revised 1985). Allogeneic (BN-to-Lew) and syngeneic (Lew-to-Lew) heterotopic heart transplantations were performed as described previously (Ono et al., J. Thorac. Cardiovasc. Surg. 57:225-229, 1969). In brief, rats were anaesthetized using 2% isoflurane. The donor received an intravenous bolus of 500 I.U. heparin. Cardiac arrest was achieved using 20 ml Bretschneider solution (Custodiol, Dr. F. Koehler Chemie, Bensheim, Germany). […] Heart-beating score was assessed directly after transplantation for each animal from score 0 (no palpable contraction) to 4 (strong and regular contraction). Only animals with beating scores of 4 were included into the study. Compound I and Compound III were provided by Rigel (South San Francisco, Calif.) and Tacrolimus was provided by Astellas (Munich, Germany). All drugs were administrated orally each in two different concentrations: Compound I LD (15 mg/kg BID; n=6) and HD (60 mg/kg BID; n=6); […] Administration of all drugs was performed every day at the same time points. Tacrolimus was applied only once a day (QD) every 24 hours. During administration of Compound I (BID) and Compound III (BID) a 12 hour pause was kept in between each drug application. Lew recipients of heterotopic BN heart transplants were randomly assigned to their group. […] An untreated syngeneic transplant group Lew-Lew was generated as control. Grafts were recovered five days after transplantation and fixed in 4% paraformaldehyde (Science Services, Munich, Germany), dehydrated and embedded in paraffin. […] Waldeck, Carl Roth GmbH, Munster, Germany) and examined by standard light microscopy. The extent of acute cardiac graft rejection in H+E staining was examined by an experienced pathologist according to the 2004 ISHLT working formulation (Stewart et al., J. Heart Lung Transplant. 24:1710-1720, 2005).

[2] = tested on: Lew recipients of heterotopic BN heart transplants; assay: Five-day heart allograft study: ELISPOT (IFN-γ, IL-4, IL-17) of recipient splenocytes; conditions: LD groups (Compound I 15 mg/kg BID, Compound III 5 mg/kg BID, Tac 1 mg/kg QD); five days
Description: (§1) Compound I and Compound III were provided by Rigel (South San Francisco, Calif.) and Tacrolimus was provided by Astellas (Munich, Germany). All drugs were administrated orally each in two different concentrations: Compound I LD (15 mg/kg BID; n=6) and HD (60 mg/kg BID; n=6); Compound III LD (5 mg/kg BID; n=6) and HD (20 mg/kg BID; n=6); Tac LD (1 mg/kg QD; n=6) and HD (4 mg/kg QD; n=6). Administration of all drugs was performed every day at the same time points. Tacrolimus was applied only once a day (QD) every 24 hours. During administration of Compound I (BID) and Compound III (BID) a 12 hour pause was kept in between each drug application.
(§2) Lew recipients of heterotopic BN heart transplants were randomly assigned to their group. Animals were either left untreated (groups 1 and 2; see Table 1,5-day study) or received their group specific medication (groups 3-8; see Table 1,5-day study) by oral application. An untreated syngeneic transplant group Lew-Lew was generated as control.
Lymphocytes were isolated from freshly harvested spleens. ELISPOT assays with 1×10^7/ml mitomycin-inhibited BN splenocytes and 1×10^6/ml Lew splenocytes were performed according to the manufacturer's protocol (BD Biosciences). 96-well plates were coated with IFN-γ, IL-17, and IL-4 to assess T helper cell (Th)1-, Th17-, and Th2-responses independently. All assays were performed in quadruplicates. Spots were automatically enumerated using an ELISPOT plate reader (CTL, Cincinnati, Ohio) for scanning and analyzing.

[3] = tested on: Lew recipients of heterotopic BN heart transplants; assay: Five-day heart allograft study: donor-specific IgM antibodies by flow cytometry; conditions: LD and HD groups; five days; p<0.001
Description: as §1, §2
Donor splenocytes were isolated and erythrocytes were lysed using the ACK buffer (Lonza, Walkersville, Md.). Sera from recipient rats were decomplemented and equal amounts of sera and splenocyte suspensions (5×10^6 cells/ml) were incubated for 30 minutes at room temperature. IgM antibodies were stained by incubation of the cells with a conjugated mouse antibody specific for the Fc-portion of rat IgM (Monoclonal Anti-rat IGM, Clone RTM-32, Sigma) followed by incubation with a 488-conjugated secondary antibody (Invitrogen). Cells were washed with PBS, fixed with 2% paraformaldehyde (Science Services), and analyzed on a FACSCalibur™ system (BD Biosciences). Fluorescence data were expressed as mean fluorescence intensity (MFI) using Flowjo software (Tree Star, Inc., Ashland, Oreg.).

[4] = tested on: BN-to-Lew heterotopic heart transplantations; assay: Graft survival study after 10-day treatment, with combination index; conditions: no medication 7±0 days
Description: Male Brown Norway (BN) and Lewis (Lew) rats weighing 350 g were purchased from Harlan (Indianapolis, Ind.) and were housed under conventional conditions. All animals were fed standard rat chow and water ad libitum and received humane care in compliance with the Principles of Laboratory Animal Care formulated by the National Society for Medical Research and the Guide for the care and Use of Laboratory Animals published by the National Institutes of Health (National Institutes of Health publication No. 85-23, revised 1985). Allogeneic (BN-to-Lew) and syngeneic (Lew-to-Lew) heterotopic heart transplantations were performed as described previously (Ono et al., J. Thorac. Cardiovasc. Surg. 57:225-229, 1969). In brief, rats were anaesthetized using 2% isoflurane. The donor received an intravenous bolus of 500 I.U. heparin. Cardiac arrest was achieved using 20 ml Bretschneider solution (Custodiol, Dr. F. Koehler Chemie, Bensheim, Germany). […] Heart-beating score was assessed directly after transplantation for each animal from score 0 (no palpable contraction) to 4 (strong and regular contraction). Only animals with beating scores of 4 were included into the study.
as §1
BN-to-Lew heterotopic heart transplantations were performed. Recipient animals were treated for 10 days according to Table 1 (10 day survival study group) and graft survival was monitored by daily palpation of the beating donor heart through the abdominal wall. Scoring was assessed according to heart-beating score of 0 to 4. The time of rejection was defined as the last day of palpable cardiac contractions and graft rejection was confirmed by laparotomy.
The median-effect principle of Chou (in Synergism and Antagonism in Chemotherapy, Chou and Rideout, eds, pp. 61-102, Academic Press, 1991) is based on the premise that the effect of each agent is related to its dose and, therefore, can be calculated using the following equation: (fa/fu)=(D/Dm)m, where fa and fu represent the fractions of the system that are affected (% inhibition or rather days of survival beyond controls) and unaffected (1−fa), respectively, by the drug at dose D. Full protection (fa=1) is defined as at least a 28-day survival of allografts. Dm is the dose required for 50% inhibition (ED50), the median effect (m) is a coefficient that describes the sigmoidicy of the dose-effect curve. The interaction between two drugs is assessed by the combination index (CI) equation for the doses to achieve x % inhibition:
[formula] for the mutually nonexclusive case, where each drug has a different mode of action. A computer software program was used to determine the dose-effect parameters (Dm, m, and r), and the CI values (CalcuSyn, Biosoft, Cambridge, United Kingdom).
Graft survival was monitored by daily palpation of the beating donor heart through the abdominal wall and treatment of animals was stopped after 10 days.

C=CC[C@@H]1/C=C(\C)C[C@H](C)C[C@H](OC)[C@H]2O[C@@](O)(C(=O)C(=O)N3CCCC[C@H]3C(=O)O[C@H](/C(C)=C/[C@@H]3CC[C@@H](O)[C@H](OC)C3)[C@H](C)[C@@H](O)CC1=O)[C@H](C)C[C@@H]2OC [Tac, Tacrolimus, reference compound]
hearts with ISHLT score of 1 [1]: 67%
hearts with ISHLT score of 2 [1]: 33%
IFN-γ spot frequency (ELISPOT) compared to no medication group [2]: no significant reduction
donor-specific IgM antibodies (DSA) vs. no medication [3]: significant suppression
graft survival, mean ([4]; HD (Compound I 60 mg/kg BID, Compound III 20 mg/kg BID, Tac 4 mg/kg QD) for 10 days): 20 ± 3 days
graft survival, mean ([4]; LD (Compound I 15 mg/kg BID, Compound III 5 mg/kg BID, Tac 1 mg/kg QD) for 10 days): 13 ± 2 days
